Test results from patent publication US20240300975A1, “DIMETHYL-SUBSTITUTED THIAZOLOLACTAM COMPOUND AND USE THEREOF” (D3 Bio (Wuxi) Co., Ltd., priority 2021, published 2024).

Tests used:
[1] = In vivo PK study in beagle dogs; conditions: male beagle dogs
Description: Male beagle dogs were used as assay animals. After a single administration, the plasma concentration of the compound was measured and the pharmacokinetic behavior was evaluated.
Five healthy adult male beagle dogs were selected, wherein 2 were in an intravenous injection group, and 3 were in an oral group. The vehicle in the intravenous injection group was 5% DMSO+95% (20% HP-β-CD). The compound to be assayed was mixed with an appropriate amount of vehicle for intravenous injection, and dissolved with stirring to prepare a clear solution of 0.4 mg/mL. The clear solution was filtered by a microporous membrane, and then ready for use. The vehicle in the oral group was 5% DMSO+95% (20% HP-β-CD). The compound to be assayed was mixed with the vehicle, and dissolved with stirring to prepare a solution of 0.3 mg/mL. Cynomolgus monkeys were administered 1 mg/kg intravenously or 3 mg/kg orally, and then whole blood was collected for a certain period. Plasma was prepared. The drug concentration was analyzed by LC-MS/MS method, and the pharmacokinetic parameters were calculated by Phoenix WinNonlin software (Pharsight, USA).

ERK1 = ERK1 (Homo sapiens (Human), UniProt P27361); experiment: In vitro ERK1 kinase activity assay (33P-ATP, filter-binding); type: biochemical
Sequence of ERK1 (P27361 whole entry): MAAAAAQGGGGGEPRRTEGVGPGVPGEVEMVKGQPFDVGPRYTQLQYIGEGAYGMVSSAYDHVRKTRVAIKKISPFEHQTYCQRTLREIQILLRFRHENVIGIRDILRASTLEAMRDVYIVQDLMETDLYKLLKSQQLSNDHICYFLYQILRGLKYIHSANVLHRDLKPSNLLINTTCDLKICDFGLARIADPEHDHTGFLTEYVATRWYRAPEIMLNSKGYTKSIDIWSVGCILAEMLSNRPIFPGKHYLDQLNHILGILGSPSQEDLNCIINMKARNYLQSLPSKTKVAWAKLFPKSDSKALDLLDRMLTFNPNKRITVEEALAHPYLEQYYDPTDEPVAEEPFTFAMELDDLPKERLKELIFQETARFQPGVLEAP
Description: (§1) The ability of compounds to inhibit ERK1 and ERK2 kinase activity was measured.
(§2) 20 mM Hepes (pH 7.5), 10 mM MgCl2, 1 mM ethylenebis(oxyethylenenitrilo)tetraacetic acid (EGTA), 0.02% Brij35, 0.02 mg/mL bovine serum albumin (BSA), 0.1 mM Na3VO4, 2 mM dithiothreitol (DTT), 1% DMSO.
(§3) The assay compound was dissolved in 100% DMSO to prepare a stock solution of specific concentration. The compound was serially diluted in DMSO solution using Integra Viaflo Assist smart pipette.
(§4) • a) The substrate MBP was prepared in freshly prepared reaction buffer; • b) ERK1 (or ERK2) kinase was added to the above-mentioned MBP solution and mixed gently; • c) The compound dissolved in 100% DMSO was added to the kinase reaction system using ultrasound technology (Echo550; nanoliter range), and the mixture was incubated at room temperature for 20 minutes; • d)^33P-ATP (specific concentration of […]) was added to the reaction system, and the reaction was started at this time; • e) The mixture was incubated at room temperature for 2 hours; • f) The amount of radioactivity was detected by filter-binding method; • g) ERK1 (or ERK2) kinase activity was calculated as the ratio of the remaining kinase activity in the assay sample to the kinase activity of the control group (treated by DMSO).
(§5) Curve was fitted using Prism (GraphPad software) and IC50 values were calculated.

[2] = In vivo PK study in SD rats; conditions: male SD rats
Description: Male SD rats were used as assay animals. After a single administration, the plasma concentration of the compound was measured and the pharmacokinetic behavior was evaluated.
Six healthy adult male SD rats were selected, wherein 3 rats were in an intravenous injection group and 3 rats were in an oral group. The vehicle in the intravenous injection group was 5% DMSO+95% (20% HP-β-CD). The compound to be assayed was mixed with an appropriate amount of vehicle for intravenous injection, vortexed and sonicated to prepare a clear solution of 0.2 mg/mL. The clear solution was filtered by a microporous membrane, and then ready for use. The vehicle in the oral group was 5% DMSO+95% (20% HP-β-CD). The compound to be assayed was mixed with the vehicle, vortexed and sonicated to prepare a solution of 1 mg/mL. SD rats were administered 1 mg/kg intravenously or 10 mg/kg orally, and then whole blood was collected for a certain period. Plasma was prepared. The drug concentration was analyzed by LC-MS/MS method, and the pharmacokinetic parameters were calculated by Phoenix WinNonlin software (Pharsight, USA).

ERK2 = ERK2 (Homo sapiens (Human), UniProt P28482); experiment: In vitro ERK2 kinase activity assay (33P-ATP, filter-binding); type: biochemical
Sequence of ERK2 (P28482 whole entry): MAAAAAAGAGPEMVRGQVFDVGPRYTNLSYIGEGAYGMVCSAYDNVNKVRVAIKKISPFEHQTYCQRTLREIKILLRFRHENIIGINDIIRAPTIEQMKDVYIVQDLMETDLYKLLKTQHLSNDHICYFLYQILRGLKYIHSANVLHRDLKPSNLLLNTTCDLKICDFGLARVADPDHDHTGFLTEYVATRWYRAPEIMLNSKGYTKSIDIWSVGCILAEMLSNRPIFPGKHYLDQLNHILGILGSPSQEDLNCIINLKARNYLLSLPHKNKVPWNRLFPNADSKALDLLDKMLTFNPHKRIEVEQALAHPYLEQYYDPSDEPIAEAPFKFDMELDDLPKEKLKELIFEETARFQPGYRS
Description: as §1, §2, §3, §4, §5

HT29 tumor cells = experiment: In vitro cell proliferation inhibition (CellTiterGlo); type: cell-based; conditions: Homo sapiens, HT-29
Description: The ability of compounds to inhibit the proliferation of HT29 tumor cells was measured.
The assay compound was dissolved in 100% DMSO to prepare 10 mM stock solution.
• a) UV light of a biological safety cabin was turned on, and 30 minutes were counted down; • b) In a 37° C. water bath, RPMI1640 medium and trypsin were preheated; • c) After completion of the UV irradiation, the biological safety cabin was opened. The preheated medium, trypsin and phosphate buffered saline (PBS), etc. were wiped with alcohol and placed in the biological safety cabin; • d) HT29 cells were removed from the incubator, and the old medium was removed in biological safety cabin. 10 ml of PBS was added. […] The culture vessel was shaken horizontally so that the trypsin evenly covered the cells at the bottom, and placed in an incubator for 2 minutes; • f) Cell digestion was stopped with complete medium, and the cell suspension was pipetted to homogeneity and counted; • g) According to the result of cell counting, the density of cell suspension was adjusted to 1500 cells per well, and the cell suspension was seeded at 50 μl per well; • h) The stock solution of compounds was serially diluted in DMSO solution, and compounds were added to cell plate using Tecan; • i) The compound-added cell plate and CellTiterGlo were equilibrated at room temperature, and 25 microliters of CellTiterGlo was then added to each well. […]

## Cc1cccc(CN2C(=O)c3nc(-c4nc(Nc5ccnn5C)ncc4C)sc3C2(C)C)n1 [WX001]
[1]; dog, plasma, iv, 1 mg/kg intravenously
  clearance: 19 mL/min/kg
[1]; dog, plasma, iv, 1 mg/kg intravenously, read-out: Vdss
  Vd: 1.94 L/kg
[1]; dog, plasma, oral, 1 mg/kg intravenously / 3 mg/kg orally, read-out: F % (oral bioavailability)
  bioavailability: 52%
[1]; dog, plasma, single administration
  half-life: 1.09 h
[1]; dog, po, 3 mg/kg orally, plasma
  Cmax: 1230 nM
[1]; 3 mg/kg orally
  Oral DNAUC (AUCPO/Dose): 1099.27 nM · h/mpk
ERK1
  IC50: 1.2 nM
[2]; 10 mg/kg orally
  Oral DNAUC (AUCPO/Dose): 302.12 nM · h/mpk
[2]; rat, plasma, iv, 1 mg/kg intravenously
  clearance: 24.8 mL/min/kg
[2]; rat, plasma, iv, 1 mg/kg intravenously, read-out: Vdss
  Vd: 1.06 L/kg
[2]; rat, plasma, oral, 1 mg/kg intravenously / 10 mg/kg orally, read-out: F % (oral bioavailability)
  bioavailability: 21%
[2]; rat, plasma, single administration
  half-life: 2.6 h
[2]; rat, po, 10 mg/kg orally, plasma
  Cmax: 1010 nM
ERK2
  IC50: 0.49 nM
HT29 tumor cells
  IC50: 21 nM
